# Experimental data: ChEMBL document CHEMBL1158619, “Synthesis and biological activity of oxadiazole and triazolothiadiazole derivatives as tyrosinase inhibitors” (Bioorg Med Chem Lett, 2010)
# pIC50: −log10 of the molar value. Activity calls are given as the source filed them. The rule behind the calls is not given here.
# Legend:
# [1] = target: T1, Tyrosinase (Agaricus bisporus) (UniProt O42713); test: Inhibition of mushroom tyrosinase at 50 uM preincubated for 5 mins before addition of L-DOPA measured after 10 mins
# T1 sequence (whole entry): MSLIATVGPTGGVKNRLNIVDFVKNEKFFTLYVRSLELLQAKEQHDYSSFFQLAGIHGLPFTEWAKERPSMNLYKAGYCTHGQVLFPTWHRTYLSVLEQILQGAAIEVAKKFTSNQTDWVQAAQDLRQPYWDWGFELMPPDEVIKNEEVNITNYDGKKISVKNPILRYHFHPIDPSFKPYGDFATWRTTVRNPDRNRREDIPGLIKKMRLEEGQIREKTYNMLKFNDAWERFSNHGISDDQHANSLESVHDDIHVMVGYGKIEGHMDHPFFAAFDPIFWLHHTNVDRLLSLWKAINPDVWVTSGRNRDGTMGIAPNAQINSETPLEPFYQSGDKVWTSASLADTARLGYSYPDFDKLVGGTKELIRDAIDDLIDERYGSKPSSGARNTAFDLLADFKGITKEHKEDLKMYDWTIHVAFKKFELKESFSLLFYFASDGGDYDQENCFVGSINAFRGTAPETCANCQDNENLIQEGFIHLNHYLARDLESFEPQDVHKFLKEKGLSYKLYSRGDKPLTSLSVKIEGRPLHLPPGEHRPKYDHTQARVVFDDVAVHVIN
# Tyrosinase = target: T2, Tyrosinase (Agaricus bisporus, UniProt O42713)
# T2 sequence (O42713 whole entry): T1 sequence (whole entry)
# Description: Inhibition of mushroom tyrosinase preincubated for 5 mins before addition of L-DOPA measured after 10 mins
Compound,inhibition [1],pIC50 (Tyrosinase)
c1ccc2c(Cc3nnc4sc(-c5nccc6ccccc56)nn34)cccc2c1,inactive,
S=c1oc(Cc2cccc3ccccc23)nn1CN1CCCCC1,,6.01
Clc1ccccc1-c1nnc2sc(-c3cccnc3)nn12,inactive,
c1ccc(-c2nnc3sc(-c4nccc5ccccc45)nn23)cc1,inactive,
Cc1cc(C)n(-c2ccc(-c3nn4c(-c5ccccc5)nnc4s3)cc2)n1,inactive,
S=c1oc(Cc2cccc3ccccc23)nn1CN1CCOCC1,,5.87
Clc1ccccc1-c1nnc(SCCN2CCOCC2)o1,inactive,
Cc1cc(C)n(-c2ccc(-c3nn4c(-c5ccccc5Cl)nnc4s3)cc2)n1,inactive,
Clc1ccccc1-c1nnc(SCCN2CCCCC2)o1,inactive,
c1ccc2c(Cc3nnc(SCCN4CCCCC4)o3)cccc2c1,inactive,
S=c1oc(Cc2cccc3ccccc23)nn1CN1CCCC1,,5.88
S=c1oc(Cc2cccc3ccccc23)nn1CN1CCNCC1,,6.06
Cc1cc(C)n(-c2ccc(-c3nn4c(Cc5cccc6ccccc56)nnc4s3)cc2)n1,inactive,
Clc1ccccc1-c1nnc2sc(-c3nccc4ccccc34)nn12,inactive,
c1ccc(-c2nnc(SCCN3CCCCC3)o2)cc1,inactive,
CN1CCN(Cn2nc(Cc3cccc4ccccc34)oc2=S)CC1,,5.83
